Test results: ChEMBL document CHEMBL3885881, “DrugMatrix”

Species: Rattus norvegicus
Experiment: DrugMatrix - Regimen: Daily Repeat
Type: toxicity, organism-based, Sprague-Dawley
Parameters: regimen Daily Repeat, gender Male, age 6-8 weeks
Settings: in vivo, sc, route subcutaneous, […]; for ABSOLUTE BASOPHIL / ABSOLUTE EOSINOPHIL / ABSOLUTE LYMPHOCYTE / ABSOLUTE MONOCYTE / ABSOLUTE SEGMENTED NEUTROPHIL / BASOPHIL / EOSINOPHIL / ERYTHROCYTE COUNT / HEMATOCRIT / HEMOGLOBIN / LEUKOCYTE COUNT / LYMPHOCYTE / MEAN CORPUSCULAR HEMOGLOBIN / MEAN CORPUSCULAR VOLUME / MONOCYTE / NEUTROPHIL / NUCLEATED RED BLOOD CELLS / PLATELET COUNT: tissue Blood; for ALANINE AMINOTRANSFERASE / ALBUMIN / ALKALINE PHOSPHATASE / ASPARTATE AMINOTRANSFERASE / BLOOD UREA NITROGEN / CARBON DIOXIDE / CHLORIDE / CHOLESTEROL / CREATINE PHOSPHOKINASE / CREATININE / GLUCOSE / LACTATE DEHYDROGENASE / LIPASE / PHOSPHORUS / POTASSIUM / SODIUM / TOTAL BILIRUBIN / TOTAL PROTEIN / URIC ACID: tissue Plasma
[1] = 3 mg/kg, 72 h, dose level Low, time 3 day
[2] = 3 mg/kg, 120 h, dose level Low, time 5 day
[3] = 30 mg/kg, 72 h, dose level M2, time 3 day
[4] = 30 mg/kg, 120 h, dose level M2, time 5 day

`CC(C)(C)CC(C)(C)c1ccc(OCCOCC[N+](C)(C)Cc2ccccc2)cc1.[Cl-]` [BENZETHONIUM CHLORIDE] was tested, and the “ABSOLUTE BASOPHIL” value [1] was 0 CELLS/uL, the “ABSOLUTE EOSINOPHIL” value [1] was 41 CELLS/uL and the “ABSOLUTE LYMPHOCYTE” value [1] was 15440.33 CELLS/uL. The “ABSOLUTE MONOCYTE” value [1] was 415 CELLS/uL, the “ABSOLUTE SEGMENTED NEUTROPHIL” value [1] was 1437 CELLS/uL and the BASOPHIL [1] was 0%. The EOSINOPHIL [1] was 0.33%, the “ERYTHROCYTE COUNT” value [1] was 5.3 x10E6/uL and the HEMATOCRIT [1] was 33.43%. The HEMOGLOBIN [1] was 12.63 G/DL, the “LEUKOCYTE COUNT” value [1] was 17.33 x10E3/uL and the LYMPHOCYTE [1] was 89.33%. For the same compound, the “MEAN CORPUSCULAR HEMOGLOBIN” value [1] was 23.87 pg, the “MEAN CORPUSCULAR VOLUME” value [1] was 63.13 fL and the MONOCYTE [1] was 2.33%. The NEUTROPHIL [1] was 8%, the “NUCLEATED RED BLOOD CELLS” value [1] was 0 /100WBC and the “PLATELET COUNT” value [1] was 1329.67 x10E3/uL. The “ALANINE AMINOTRANSFERASE” value [1] was 45 u/L, the ALBUMIN [1] was 3.7 G/DL and the “ALKALINE PHOSPHATASE” value [1] was 323.67 u/L. The “ASPARTATE AMINOTRANSFERASE” value [1] was 74 u/L, the “BLOOD UREA NITROGEN” value [1] was 15.67 mg/dL and the “CARBON DIOXIDE” value [1] was 28 mmol/L. For the same compound, the CHLORIDE [1] was 101 MEQ/L, the CHOLESTEROL [1] was 83.33 mg/dL and the “CREATINE PHOSPHOKINASE” value [1] was 130.67 u/L. The CREATININE [1] was 0.18 mg/dL, the GLUCOSE [1] was 149.33 mg/dL and the “LACTATE DEHYDROGENASE” value [1] was 78.67 u/L. The LIPASE [1] was 8.67 u/L, the PHOSPHORUS [1] was 11.23 mg/dL and the POTASSIUM [1] was 6.78 MEQ/L. For the same compound, the SODIUM [1] was 142.67 MEQ/L, the “TOTAL BILIRUBIN” value [1] was 0.23 mg/dL and the “TOTAL PROTEIN” value [1] was 5.93 G/DL. The “URIC ACID” value [1] was 1.53 mg/dL, the “ABSOLUTE BASOPHIL” value [2] was 0 CELLS/uL and the “ABSOLUTE EOSINOPHIL” value [2] was 149.33 CELLS/uL. For the same compound, the “ABSOLUTE LYMPHOCYTE” value [2] was 16956.67 CELLS/uL, the “ABSOLUTE MONOCYTE” value [2] was 380.67 CELLS/uL and the “ABSOLUTE SEGMENTED NEUTROPHIL” value [2] was 2446.67 CELLS/uL. The BASOPHIL [2] was 0%, the EOSINOPHIL [2] was 0.67% and the “ERYTHROCYTE COUNT” value [2] was 5.5 x10E6/uL. The HEMATOCRIT [2] was 34.13%, the HEMOGLOBIN [2] was 12.67 G/DL and the “LEUKOCYTE COUNT” value [2] was 19.93 x10E3/uL. For the same compound, the LYMPHOCYTE [2] was 85.33%, the “MEAN CORPUSCULAR HEMOGLOBIN” value [2] was 23 pg and the “MEAN CORPUSCULAR VOLUME” value [2] was 62.03 fL. For the same compound, the MONOCYTE [2] was 2%, the NEUTROPHIL [2] was 12% and the “NUCLEATED RED BLOOD CELLS” value [2] was 0 /100WBC. The “PLATELET COUNT” value [2] was 1520.67 x10E3/uL, the “ALANINE AMINOTRANSFERASE” value [2] was 63 u/L and the ALBUMIN [2] was 3.47 G/DL. The “ALKALINE PHOSPHATASE” value [2] was 275 u/L, the “ASPARTATE AMINOTRANSFERASE” value [2] was 71.67 u/L and the “BLOOD UREA NITROGEN” value [2] was 14.67 mg/dL. For the same compound, the “CARBON DIOXIDE” value [2] was 27.33 mmol/L, the CHLORIDE [2] was 103 MEQ/L and the CHOLESTEROL [2] was 70.67 mg/dL. The “CREATINE PHOSPHOKINASE” value [2] was 560.33 u/L, the CREATININE [2] was 0.23 mg/dL and the GLUCOSE [2] was 152.67 mg/dL. For the same compound, the “LACTATE DEHYDROGENASE” value [2] was 156.67 u/L, the LIPASE [2] was 10 u/L and the PHOSPHORUS [2] was 11.23 mg/dL. For the same compound, the POTASSIUM [2] was 7.21 MEQ/L, the SODIUM [2] was 144.55 MEQ/L and the “TOTAL BILIRUBIN” value [2] was 0.17 mg/dL. For the same compound, the “TOTAL PROTEIN” value [2] was 5.73 G/DL, the “URIC ACID” value [2] was 1.53 mg/dL and the “ABSOLUTE BASOPHIL” value [3] was 0 CELLS/uL. For the same compound, the “ABSOLUTE EOSINOPHIL” value [3] was 0 CELLS/uL, the “ABSOLUTE LYMPHOCYTE” value [3] was 10787.33 CELLS/uL and the “ABSOLUTE MONOCYTE” value [3] was 579.67 CELLS/uL. For the same compound, the “ABSOLUTE SEGMENTED NEUTROPHIL” value [3] was 1766.33 CELLS/uL, the BASOPHIL [3] was 0% and the EOSINOPHIL [3] was 0%. For the same compound, the “ERYTHROCYTE COUNT” value [3] was 5.13 x10E6/uL, the HEMATOCRIT [3] was 31.77% and the HEMOGLOBIN [3] was 11.87 G/DL. For the same compound, the “LEUKOCYTE COUNT” value [3] was 13.13 x10E3/uL, the LYMPHOCYTE [3] was 83% and the “MEAN CORPUSCULAR HEMOGLOBIN” value [3] was 23.13 pg. The “MEAN CORPUSCULAR VOLUME” value [3] was 61.93 fL, the MONOCYTE [3] was 4.33% and the NEUTROPHIL [3] was 12.67%. For the same compound, the “NUCLEATED RED BLOOD CELLS” value [3] was 0 /100WBC, the “PLATELET COUNT” value [3] was 981 x10E3/uL and the “ALANINE AMINOTRANSFERASE” value [3] was 24.33 u/L. The ALBUMIN [3] was 2.63 G/DL, the “ALKALINE PHOSPHATASE” value [3] was 269 u/L and the “ASPARTATE AMINOTRANSFERASE” value [3] was 71.67 u/L. For the same compound, the “BLOOD UREA NITROGEN” value [3] was 15.33 mg/dL, the “CARBON DIOXIDE” value [3] was 21.67 mmol/L and the CHLORIDE [3] was 101 MEQ/L. For the same compound, the CHOLESTEROL [3] was 45 mg/dL, the “CREATINE PHOSPHOKINASE” value [3] was 122.67 u/L and the CREATININE [3] was 0.15 mg/dL. The GLUCOSE [3] was 140.67 mg/dL, the “LACTATE DEHYDROGENASE” value [3] was 116.67 u/L and the LIPASE [3] was 7 u/L. For the same compound, the PHOSPHORUS [3] was 11.27 mg/dL, the POTASSIUM [3] was 5.61 MEQ/L and the SODIUM [3] was 142.5 MEQ/L. The “TOTAL BILIRUBIN” value [3] was 0.1 mg/dL, the “TOTAL PROTEIN” value [3] was 5.93 G/DL and the “URIC ACID” value [3] was 2.4 mg/dL. The “ABSOLUTE BASOPHIL” value [4] was 0 CELLS/uL, the “ABSOLUTE EOSINOPHIL” value [4] was 0 CELLS/uL and the “ABSOLUTE LYMPHOCYTE” value [4] was 12245 CELLS/uL. For the same compound, the “ABSOLUTE MONOCYTE” value [4] was 1299.67 CELLS/uL, the “ABSOLUTE SEGMENTED NEUTROPHIL” value [4] was 8588.67 CELLS/uL and the BASOPHIL [4] was 0%. For the same compound, the EOSINOPHIL [4] was 0%, the “ERYTHROCYTE COUNT” value [4] was 4.82 x10E6/uL and the HEMATOCRIT [4] was 29.43%. For the same compound, the HEMOGLOBIN [4] was 11.43 G/DL, the “LEUKOCYTE COUNT” value [4] was 22.13 x10E3/uL and the LYMPHOCYTE [4] was 55%. For the same compound, the “MEAN CORPUSCULAR HEMOGLOBIN” value [4] was 23.73 pg, the “MEAN CORPUSCULAR VOLUME” value [4] was 61.07 fL and the MONOCYTE [4] was 6%. The NEUTROPHIL [4] was 39%, the “NUCLEATED RED BLOOD CELLS” value [4] was 0 /100WBC and the “PLATELET COUNT” value [4] was 1372 x10E3/uL. For the same compound, the “ALANINE AMINOTRANSFERASE” value [4] was 31.67 u/L, the ALBUMIN [4] was 2.27 G/DL and the “ALKALINE PHOSPHATASE” value [4] was 363.33 u/L. The “ASPARTATE AMINOTRANSFERASE” value [4] was 89.33 u/L, the “BLOOD UREA NITROGEN” value [4] was 11.67 mg/dL and the “CARBON DIOXIDE” value [4] was 29.33 mmol/L. For the same compound, the CHLORIDE [4] was 101.67 MEQ/L, the CHOLESTEROL [4] was 41.33 mg/dL and the “CREATINE PHOSPHOKINASE” value [4] was 166.67 u/L. The CREATININE [4] was 0.11 mg/dL, the GLUCOSE [4] was 117.33 mg/dL and the “LACTATE DEHYDROGENASE” value [4] was 105.33 u/L. It also gave an LIPASE [4] of 7 u/L, a PHOSPHORUS [4] of 10.93 mg/dL and a POTASSIUM [4] of 6.02 MEQ/L. The SODIUM [4] was 143.77 MEQ/L, the “TOTAL BILIRUBIN” value [4] was 0.1 mg/dL and the “TOTAL PROTEIN” value [4] was 5.3 G/DL. For the same compound, the “URIC ACID” value [4] was 1.83 mg/dL.
